Here are results for 20 compounds from ChEMBL document CHEMBL1125293 (J Med Chem, 1992).

The target in the first assay is T1, Substance-P receptor (Rattus norvegicus, UniProt P14600). The assay is classed as cell membranes, Membrane.
T1 sequence (P14600 whole entry): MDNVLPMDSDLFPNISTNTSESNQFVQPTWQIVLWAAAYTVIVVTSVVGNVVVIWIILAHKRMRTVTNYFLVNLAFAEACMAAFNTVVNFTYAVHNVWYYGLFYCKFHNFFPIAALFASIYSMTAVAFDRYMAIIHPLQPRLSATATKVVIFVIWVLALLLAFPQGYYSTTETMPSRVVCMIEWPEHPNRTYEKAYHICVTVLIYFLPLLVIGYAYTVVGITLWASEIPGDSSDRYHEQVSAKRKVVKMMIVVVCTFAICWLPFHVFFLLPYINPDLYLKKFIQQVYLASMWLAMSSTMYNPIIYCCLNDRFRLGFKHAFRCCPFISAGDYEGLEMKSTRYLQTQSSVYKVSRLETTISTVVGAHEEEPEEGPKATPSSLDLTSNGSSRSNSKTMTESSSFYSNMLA
Compound `C#C[C@]1(O)CCC2C3CC[C@H]4Cc5nc6cc7ccccc7n6cc5C[C@]4(C)C3CC[C@@]21C` (stereo not given in full) displayed an IC50 of over 10 µM. Regarding `CC(CCC(=O)O)[C@H]1CCC2C3C(C[C@H](O)[C@@]21C)[C@@]1(C)Cc2cn4c(nc2CC1C[C@H]3O)nc1ccccc14` (stereo not given in full), the IC50 is over 10 µM. For `C[C@]12Cc3cn4c(nc3CC1CCC1C2CC[C@@]2(C)C1CC[C@]2(C)O)nc1ccccc14` (stereo not given in full), the IC50 was 0.2 µM. `C=CC1=CCCC2Cc3nc4nc5ccccc5n4cc3C[C@]12C` (stereo not given in full) yielded an IC50 of over 10 µM. The same measure, in the same setting: as for `C=C[C@]1(O)CCC2C3CCC4Cc5nc6nc7ccccc7n6cc5C[C@]4(C)C3CC[C@@]21C` (stereo not given in full), the figure is 0.086 µM; as for `C#C[C@]1(OC)CCC2C3CCC4Cc5nc6nc7ccccc7n6cc5C[C@]4(C)C3CC[C@@]21C` (stereo not given in full), over 10 µM. Same read-out and setting: then `C[C@]12Cc3cn4c(nc3CC1CCC1C2CC[C@@]2(C)C1CC[C@@H]2O)nc1ccccc14` (stereo not given in full), with 0.22 µM; and `C[C@@]12CCCC1C1CCC3Cc4nc5nc6ccccc6n5cc4C[C@]3(C)C1CC2` (stereo not given in full), with over 10 µM; and `COC(=O)CCC(C)[C@H]1CCC2C3C(C[C@H](O)[C@@]21C)[C@@]1(C)Cc2cn4c(nc2CC1C[C@H]3O)nc1ccccc14` (stereo not given in full), with over 2.5 µM. On the same count and under the same terms, then `C#C[C@]1(O)CCC2C3CC[C@H]4Cc5nc6[nH]c7ccccc7c6cc5C[C@]4(C)C3CC[C@@]21C` (stereo not given in full), with over 10 µM. Consider `Cc1cc(C)n2c(n1)nc1ccccc12`, for which the 50% inhibitory concentration (IC50) is over 10 µM. For `C#C[C@]1(O)CCC2C3CC[C@H]4Cc5nc6nc7cc8ccccc8cc7n6cc5C[C@]4(C)C3CC[C@@]21C` (stereo not given in full), the IC50 stood at 0.32 µM.

In the next assay the target is T1, Substance-P receptor. Description: Inhibition of [125]I-Bolton Hunter Substance P([125]I-BHSP) binding to Tachykinin receptor 1 from rat forebrain membranes. In kind it is cell membranes, Membrane.
In the case of `COC(=O)[C@H]1CCC2C3CCC4Cc5nc6nc7ccccc7n6cc5C[C@]4(C)C3CC[C@@]21C` (stereo not given in full), the IC50 was over 10 µM. On the same count and under the same terms, then `C#CC[C@]1(O)CCC2C3CCC4Cc5nc6nc7ccccc7n6cc5C[C@]4(C)C3CC[C@@]21C` (stereo not given in full), with 0.32 µM; and `c1ccc2c(c1)nc1nc3c(cn12)CCCC3`, with over 10 µM. Same read-out and setting: as for `C[C@]12Cc3cn4c(nc3CC1CCC1C2CC[C@]2(C)C(=O)CCC12)nc1ccccc14` (stereo not given in full), the figure is over 10 µM. The compound `CC#C[C@]1(O)CCC2C3CCC4Cc5nc6nc7ccccc7n6cc5C[C@]4(C)C3CC[C@@]21C` (stereo not given in full) had an IC50 of 0.18 µM. For the compound `C[C@]12CCC3C(CC[C@@H]4Cc5nc6nc7ccccc7n6cc5C[C@]34C)C1CC[C@@H]2O` (stereo not given in full), the IC50 was over 10 µM. Still for that read-out and setting: as for `CC(C)CCCC(C)[C@@H]1CCC2C3CCC4Cc5nc6nc7ccccc7n6cc5C[C@]4(C)C3CC[C@@]21C` (stereo not given in full), the figure is over 10 µM; as for `C[C@]12Cc3cn4c(nc3CC1CCC1C2CC[C@@]2(C)C1CC[C@@]2(O)c1ccccc1)nc1ccccc14` (stereo not given in full), over 10 µM.
